Assay results reported in US4973578A, “Synthetic peptides derived from the alpha-subunit of human lycoprotein hormones” (Mayo Foundation for Medical Education and Research, priority 1988, dated 1990).
Several values for one entry are separate records, joined by “and”; a condition that tells them apart may be missing. Equal entries are not always repeated. Residues, ends and D or L forms follow the SMILES beside them.

How the values were obtained:
[1] = target: T1, TSH receptor on human thyroid membranes (Homo sapiens, UniProt P16473); assay: TSH radioreceptor assay: inhibition of 125I-bTSH binding to human thyroid membrane preparations
T1 construct: Thyroid tissue obtained at surgery from patients with Graves' disease was prepared as described by Takahashi et al; from tissue; host or cells: human thyroid tissue from Graves' disease patients, 2000xg membrane fraction
T1 sequence (P16473 21-764): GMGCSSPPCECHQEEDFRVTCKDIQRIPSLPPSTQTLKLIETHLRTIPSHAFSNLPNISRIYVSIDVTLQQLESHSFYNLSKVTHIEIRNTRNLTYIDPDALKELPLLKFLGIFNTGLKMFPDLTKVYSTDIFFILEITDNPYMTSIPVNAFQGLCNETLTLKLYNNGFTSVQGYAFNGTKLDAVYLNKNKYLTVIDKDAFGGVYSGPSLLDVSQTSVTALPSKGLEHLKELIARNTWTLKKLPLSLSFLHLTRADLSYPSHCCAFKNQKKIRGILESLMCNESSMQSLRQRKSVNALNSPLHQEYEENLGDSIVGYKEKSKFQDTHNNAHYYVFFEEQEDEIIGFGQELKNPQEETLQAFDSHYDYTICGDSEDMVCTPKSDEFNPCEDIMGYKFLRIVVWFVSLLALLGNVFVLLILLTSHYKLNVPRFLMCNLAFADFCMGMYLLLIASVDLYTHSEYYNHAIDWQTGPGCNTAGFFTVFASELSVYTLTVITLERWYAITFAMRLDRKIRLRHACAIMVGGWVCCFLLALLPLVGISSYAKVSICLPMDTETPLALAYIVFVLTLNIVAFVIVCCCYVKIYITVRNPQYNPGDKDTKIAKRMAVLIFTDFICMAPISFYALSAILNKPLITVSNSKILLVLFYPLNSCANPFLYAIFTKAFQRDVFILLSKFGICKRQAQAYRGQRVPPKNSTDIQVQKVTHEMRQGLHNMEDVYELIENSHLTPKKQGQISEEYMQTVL
Procedure: Thyroid tissue obtained at surgery from patients with Graves' disease was prepared as described by Takahashi et al., J. Clin. Endocrinol. Metab. 47:870 (1978), the disclosure of which is incorporated herein. Briefly, the tissue was dissected free of fibrous material, minced with scissors, and homogenized with Polytron homogenizer. The 2000×g fraction was collected by centrifugation, washed and resuspended in 40 mM Tris, 0.1% Bovine Serum Albumin (BSA) pH 7.4 at a concentration of 100 mg equivalents of wet tissue per milliliter. The preparation was stored at -70° C. until used for assay.
Highly purified bovine TSH (30 IU/mg, supplied by Dr. J. G. Pierce, UCLA) was radio-iodinated (Na^125 I, Amersham, Chicago) by a gentle lactoperoxidase procedure described by Takahashi et al., supra, then purified by Sephadex G-100 chromatography.
The membrane assay incubation mixture consisted of […] of the 2000×g membrane fraction, 0.125 ng ^125 I bTSH (approximately 20,000 cpm, 5×10^-12 M), 100 ul of 1% Triton X-100 and noted amounts of test materials in a final volume of 0.5 ml of 40 mM Tris-HCl pH 7.4 plus 0.1% BSA. Nonspecific binding was determined by addition of excess unlabeled bTSH (200 mU/ml, Sigma, St. Louis). After 2 hrs incubation at 25° C., 200 ul of 5 mg/ml bovine gamma globulin and 1 ml 30% polyethylene glycol 6000 (Baker, Phillipsburg, N.J.) in 1M NaCl was added to each tube and the tubes centrifuged at 4000 rpm for 25 minutes. The supernatants were aspirated and pellets counted in a gamma counter. Specific binding averaged 25% of total counts.
FIG. 1 reports 5×10^-12 M labeled bTSH incubated with 10 mg equivalents (wet weight) of 2000×g fraction of thyroid membranes with varying concentrations of unlabeled TSH or synthetic α-subunit peptides. Nonspecific binding was determined in the presence of excess unlabeled TSH.

[2] = test system: thyroid stimulating immunoglobulin (TSI) stimulated cAMP in FRTL-5 cells; assay: TSI bioassay: inhibition of thyroid stimulating immunoglobulin activity (PEG-precipitated patient immunoglobulin) in FRTL-5 cells; format: cell-based, rat; details: for Percent inhibition of TSI activity, mean: mean of patient samples tested
Text: Ten patients (8 women and 2 men) with Graves' disease and high levels of TSI were identified after evaluation by FRTL-5 cell bioassay in the clinical chemistry laboratory. (FRTL-5 bioassay described below employing known TSH receptor recognition of various species hormones) Consecutive samples that had indices greater than 15 and sufficient serum remaining for further evaluation were chosen. Seven of the 10 had serum thyroxine values above the normal range and 9 of 10 had TSH levels below the euthyroid range by sensitive immunoradiometric assay [Boots-Celltech Sucrosep, Berkshire, UK, conducted as described in Klee and Hay, J. Clin. Endocrinol. Metab., 64:461 (1987)]. (FIG. 5). For comparison serum from 13 normal subjects was examined for TSI at the same serum dilution as the patient sera. (FIG. 5).
FRTL-5 cells were maintained in Ham's F-12 medium supplemented with 5% calf serum and a 6-hormone preparation (6H) as described by Ambesi-Impiombato, supra. The cells were removed from flasks enzymatically, plated at 150,000 cells per well in 24 well plates, and grown in 6H medium for 4 days. The medium was then replaced with fresh medium supplemented with insulin only (1H) for 7 days prior to assay. The bioassay was a modification of that described by Kasagi et al., supra. Briefly, immunoglobulins were precipitated from 2 ml of serum with 6 ml 20% polyethylene glycol 6000 (Baker, Phillipsburg, N.J.), centrifuged at 2800×g for 20 minutes, and then reconstituted in 2.4 ml buffer (NaCl-free Hanks balanced salt solution, NaCl-free HBSS), containing 1 mM iso-butyl-methyl-xanthine (IBMX, Sigma, St. Louis) and 1.5% BSA. After washing the cells with HBSS, 150 ul of buffer was added to the wells plus varying concentrations of synthetic α-subunit peptides followed immediately by 150 ul of the crude immunoglobulin extract. The plates were incubated for 2 hours at 37° C., 5% CO2 after which 100 ul of medium was removed and diluted in 900 ul 50 mM sodium acetate buffer, pH 6.2. cAMP content was determined by radioimmunoassay using the procedures described in Wray and Glinos, supra and Steiner et al., supra. Basal cAMP levels were determined in the absence of immunoglobulin extract and synthetic peptides for each plate. Basal and maximum levels were determined in quadruplicate; peptide effects were measured in duplicate at each concentration.
Percent increase in cAMP levels over basal was calculated as below: [formula]
Percent inhibition of TSI activity by the synthetic α-subunit peptides was calculated as follows: [formula]
cAMP levels in the presence of synthetic peptides were compared to maximum levels using student's T test for paired samples. Mean percent inhibition between different peptides were compared with student's T test for independent samples. Correlations were determined by Pearson's R.

SMILES: CSCC[C@H](NC(=O)[C@H](CS)NC(=O)[C@H](CCC(N)=O)NC(=O)[C@@H](N)CC(C)C)C(=O)NCC(=O)N[C@@H](CS)C(=O)N[C@@H](CS)C(=O)N[C@@H](Cc1ccccc1)C(=O)N[C@@H](CO)C(=O)N[C@@H](CCCNC(=N)N)C(=O)N[C@@H](C)C(=O)N[C@@H](Cc1ccc(O)cc1)C(=O)N1CCC[C@H]1C(=O)N[C@H](C(=O)N1CCC[C@H]1C(=O)N[C@@H](CC(C)C)C(=O)N[C@@H](CCCNC(=N)N)C(=O)N[C@@H](CO)C(=O)N[C@@H](CCCCN)C(=O)N[C@@H](CCCCN)C(=O)N[C@H](C(N)=O)[C@@H](C)O)[C@@H](C)O [α26-46, Leu--Gln--Cys--Met--Gly--Cys--Cys--Phe--Ser--Arg--Ala--Tyr--Pro--Thr--Pro--Leu--Arg--Ser--Lys--Lys--Thr--(NH2)] (H-LQCMGCCFSRAYPTPLRSKKT-NH2)
- displacement of 125I-bTSH label ([1]; at concentrations greater than 1×10^-5 m, FIG. 1): more than 80%
- IC50 ([1]; human thyroid membrane homogenates, ± S.E., read-out: bTSH ED50 (effective dose necessary to inhibit binding of 125I-bTSH by 50%)): 10.8 ± 0.3 µM
- inhibition of 125I-bTSH binding, result in words ([1]; human thyroid membranes, FIG. 1): dose dependent inhibition
- patient samples in which peptide showed an inhibitory effect / lowered cAMP levels ([2]; Graves' disease patient samples): 10 of 10
- Percent inhibition of TSI activity ([2]; Pt. sample A, peptide 66.7 ug/ml): 62.1%
- Percent inhibition of TSI activity ([2]; Pt. sample A, peptide 133 ug/ml): 125.3±3% and 125.3%
- Percent inhibition of TSI activity ([2]; Pt. sample B, peptide 66.7 ug/ml): 14.3%
- Percent inhibition of TSI activity ([2]; Pt. sample B, peptide 133 ug/ml): 125.0%
- Percent inhibition of TSI activity ([2]; Pt. sample C, peptide 66.7 ug/ml): 29.1%
- Percent inhibition of TSI activity ([2]; Pt. sample C, peptide 133 ug/ml): 86.4%
- Percent inhibition of TSI activity ([2]; Pt. sample D, peptide 66.7 ug/ml): 9.1%
- Percent inhibition of TSI activity ([2]; Pt. sample D, peptide 133 ug/ml): 85.7%
- Percent inhibition of TSI activity ([2]; Pt. sample E, peptide 66.7 ug/ml): 42.0%
- Percent inhibition of TSI activity ([2]; Pt. sample E, peptide 133 ug/ml): 85.9%
- Percent inhibition of TSI activity ([2]; Pt. sample F, peptide 66.7 ug/ml): 19.8%
- Percent inhibition of TSI activity ([2]; Pt. sample F, peptide 133 ug/ml): 57.8%
- Percent inhibition of TSI activity ([2]; Pt. sample G, peptide 66.7 ug/ml): 43.1%
- Percent inhibition of TSI activity ([2]; Pt. sample G, peptide 133 ug/ml): 77.2%
- Percent inhibition of TSI activity ([2]; Pt. sample H, peptide 66.7 ug/ml): 14.7%
- Percent inhibition of TSI activity ([2]; Pt. sample H, peptide 133 ug/ml): 52.5%
- Percent inhibition of TSI activity ([2]; Pt. sample I, peptide 66.7 ug/ml): 4.2%
- Percent inhibition of TSI activity ([2]; Pt. sample I, peptide 133 ug/ml): 38±9.7% and 38.0%
- Percent inhibition of TSI activity ([2]; Pt. sample J, peptide 66.7 ug/ml): 36.0%
- Percent inhibition of TSI activity ([2]; Pt. sample J, peptide 133 ug/ml): 57.7%
- Percent inhibition of TSI activity, mean ([2]; peptide 66.7 ug/ml): 27.5%
- Percent inhibition of TSI activity, mean ([2]; peptide 133 ug/ml): 79.1±8.8% and 79.1%
- patient Ig samples with statistically significant inhibition of cAMP ([2]; peptide 133 ug/ml): 10
